In patent US20240058459A1 (Ashvattha Therapeutics, Inc., priority 2019, published 2024):
One block for each compound: values may come before it.

Experiments:
[1] = biological target: TIE II (Homo sapiens (Human), UniProt Q02763); assay: TIE II inhibition, dissociation constant; assay type: binding
[2] = system: choroidal neovascularization (CNV); assay: Laser-induced CNV mouse model, single IV dose; conditions: single dose 24 hr after laser (IV; aflibercept IVT 40 μg); CNV area 7 days after laser
Description: As a positive control group, a cohort of mice were administered aflibercept (EYLEA®) intravitreally (IVT; 1 μL, 40 μg). The CNV area was measured 7 days after laser treatment by both fluorescein angiography and flat-mounts of the sclera-choroid/RPE complexes stained with isolectin IB4.

[3] = system: choroidal neovascularization (CNV); assay: Laser-induced CNV mouse model, single IP dose, duration of efficacy; assay type: in vivo, C57BL/6 mice; conditions: single IP dose (aflibercept IVT)
[4] = biological target: VEGFR2 (Homo sapiens (Human), UniProt P35968); assay: In vitro kinase binding assay (VEGFR2)
VEGFR2, sequence (P35968 20-1356): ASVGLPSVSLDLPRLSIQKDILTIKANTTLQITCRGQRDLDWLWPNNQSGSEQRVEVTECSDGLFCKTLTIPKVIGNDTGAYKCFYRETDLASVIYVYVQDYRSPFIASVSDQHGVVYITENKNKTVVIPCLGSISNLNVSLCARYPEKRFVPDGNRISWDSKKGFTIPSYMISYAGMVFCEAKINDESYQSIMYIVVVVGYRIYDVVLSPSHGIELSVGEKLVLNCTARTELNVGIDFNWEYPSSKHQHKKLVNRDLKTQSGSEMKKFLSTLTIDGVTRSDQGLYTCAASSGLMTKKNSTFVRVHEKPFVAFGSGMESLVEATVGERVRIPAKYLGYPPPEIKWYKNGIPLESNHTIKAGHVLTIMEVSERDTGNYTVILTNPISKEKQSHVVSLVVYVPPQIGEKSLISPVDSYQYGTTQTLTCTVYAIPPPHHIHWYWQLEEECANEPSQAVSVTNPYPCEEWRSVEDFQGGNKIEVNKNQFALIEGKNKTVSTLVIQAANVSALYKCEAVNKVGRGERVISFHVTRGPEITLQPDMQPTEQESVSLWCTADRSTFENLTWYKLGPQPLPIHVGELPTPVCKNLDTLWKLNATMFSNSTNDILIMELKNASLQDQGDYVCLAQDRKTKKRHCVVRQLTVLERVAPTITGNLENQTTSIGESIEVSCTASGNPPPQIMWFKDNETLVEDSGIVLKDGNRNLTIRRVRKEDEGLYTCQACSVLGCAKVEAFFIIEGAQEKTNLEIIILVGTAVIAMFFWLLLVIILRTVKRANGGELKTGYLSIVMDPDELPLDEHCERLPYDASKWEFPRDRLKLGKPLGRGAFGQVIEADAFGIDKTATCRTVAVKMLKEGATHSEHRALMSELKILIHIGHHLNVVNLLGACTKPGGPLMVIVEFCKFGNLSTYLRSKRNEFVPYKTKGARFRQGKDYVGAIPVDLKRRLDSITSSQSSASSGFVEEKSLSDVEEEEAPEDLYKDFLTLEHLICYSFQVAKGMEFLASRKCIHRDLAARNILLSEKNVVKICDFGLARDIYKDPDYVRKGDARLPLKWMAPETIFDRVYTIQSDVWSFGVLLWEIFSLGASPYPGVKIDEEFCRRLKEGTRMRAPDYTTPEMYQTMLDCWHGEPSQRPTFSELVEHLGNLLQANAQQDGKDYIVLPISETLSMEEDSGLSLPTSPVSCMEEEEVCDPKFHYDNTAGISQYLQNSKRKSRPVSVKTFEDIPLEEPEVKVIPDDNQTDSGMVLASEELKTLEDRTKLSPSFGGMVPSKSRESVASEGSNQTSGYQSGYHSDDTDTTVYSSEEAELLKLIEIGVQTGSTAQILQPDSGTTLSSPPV
Description: All reactions performed in polypropylene 384-well plate. Each was a final volume of 0.02 ml.

[5] = rat, in vivo, 40.21 mg/kg
[6] = system: choroidal neovascular (CNV) lesions; assay: Localization and persistence in CNV lesions after systemic administration, laser-induced CNV mouse model; assay type: in vivo, C57BL/6 mice
Description: Two studies were conducted in C57BL/6 mice (n=5/group) administered intravenously 100 μL of D-ICG or vehicle control. In the first study, mice were administered D-ICG or vehicle control at 1, 3, 7, or 14 days post-laser and eyes were analyzed by optical coherence tomography (OCT) with ICG imaging at 4 or 24 hr post-dose. Flat-mounts of the sclera-choroid/retinal pigment epithelial (RPE) complexes were stained by fluorescently tagged isolectin and IBA-1.
The second study evaluated the localization and persistence of dendrimer conjugates in the CNV lesion. In the second study, mice were administered intravenously 100 μL of D-ICG and 100 μL of D-TRITC (1 hr after D-ICG) or vehicle control at 24 hr post-laser. Mice analyzed and sacrificed at 4, 7, 14, 21, and 28 days post-dose (n=5/group). For control group, free ICG (1.23 mg/mL), 100 μL, IV dosed 24 hr post-laser and mice analyzed and sacrificed at 2, 4, 7, and 14 days post-dose (n=5/group). Eyes analyzed by optical coherence tomography (OCT) with ICG imaging. Flat-mounts of the sclera-choroid/retinal pigment epithelial (RPE) complexes were stained by fluorescently tagged IBA-1 alone.

[7] = Toxicokinetics in rats; assay type: in vivo, Sprague-Dawley rats; conditions: D-4517 12 mg/kg daily IP, sunitinib 30 mg/kg daily oral
Description: Toxicokinetic data was collected in rats. […] Blood samples were collected, and plasma drug concentrations were determined. Noncompartmental toxicokinetic parameters were estimated.

TIE II, sequence (Q02763 23-1124): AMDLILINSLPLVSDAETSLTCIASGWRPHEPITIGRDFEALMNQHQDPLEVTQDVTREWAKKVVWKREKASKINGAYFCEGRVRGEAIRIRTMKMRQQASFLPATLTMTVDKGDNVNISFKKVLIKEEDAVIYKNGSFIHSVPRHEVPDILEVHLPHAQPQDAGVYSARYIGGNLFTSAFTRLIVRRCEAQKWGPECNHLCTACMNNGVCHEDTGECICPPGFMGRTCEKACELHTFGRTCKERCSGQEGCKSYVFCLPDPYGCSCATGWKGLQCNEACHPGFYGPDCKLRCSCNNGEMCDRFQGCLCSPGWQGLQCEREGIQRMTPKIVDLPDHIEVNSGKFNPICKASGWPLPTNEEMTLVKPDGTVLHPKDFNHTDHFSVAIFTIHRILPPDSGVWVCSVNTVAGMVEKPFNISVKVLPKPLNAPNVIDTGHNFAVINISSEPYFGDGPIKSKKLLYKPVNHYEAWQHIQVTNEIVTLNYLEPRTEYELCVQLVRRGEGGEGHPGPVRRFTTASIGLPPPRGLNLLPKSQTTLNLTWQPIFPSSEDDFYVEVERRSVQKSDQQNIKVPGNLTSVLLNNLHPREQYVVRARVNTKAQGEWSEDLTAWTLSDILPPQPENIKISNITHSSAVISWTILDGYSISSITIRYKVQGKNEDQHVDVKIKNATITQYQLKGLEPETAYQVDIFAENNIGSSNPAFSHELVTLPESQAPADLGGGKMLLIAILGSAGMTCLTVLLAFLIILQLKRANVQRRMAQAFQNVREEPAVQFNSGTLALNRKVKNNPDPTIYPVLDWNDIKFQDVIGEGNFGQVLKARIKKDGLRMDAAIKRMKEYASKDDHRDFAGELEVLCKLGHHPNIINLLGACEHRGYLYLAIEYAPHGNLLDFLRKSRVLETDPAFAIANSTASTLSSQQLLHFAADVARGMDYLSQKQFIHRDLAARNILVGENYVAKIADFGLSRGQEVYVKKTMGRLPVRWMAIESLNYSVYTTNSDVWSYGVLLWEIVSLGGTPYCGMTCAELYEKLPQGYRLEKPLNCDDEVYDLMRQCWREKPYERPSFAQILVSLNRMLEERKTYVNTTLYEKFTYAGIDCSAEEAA

Kd [1]: ~8.8 nM
Compound: COC(=O)Nc1nc2ccc(Oc3ccc(NC(=O)Nc4cc(C(F)(F)F)ccc4OCCCCN=[N+]=[N-])cc3)cc2[nH]1 [Structure V]

Compound: aflibercept
reduction in CNV area compared with vehicle control [2]: Statistically significant reductions in the CNV area | CNV area ([3]; day 7 post-treatment): Significant reduction in the CNV area | CNV area ([3]; day 14 post-treatment): not sustained

Kd [4]: 1 nM
Compound: Cc1[nH]c(/C=C2\C(=O)Nc3ccc(F)cc32)c(C)c1C(=O)NCCNC(=O)CCOCCOCCOCCN=[N+]=[N-]

Compound: CCN(CC)CCNC(=O)c1c(C)[nH]c(/C=C2\C(=O)Nc3ccc(F)cc32)c1C [Sunitinib Malate, reference compound]
overall tolerability [5]: various clinical and pathological changes in addition to mortality in female rats

time at which no longer present in the lesions ([6]; free ICG control groups, IV 24 hr post-laser): 7-14 days post-laser | uptake/distribution in CNV lesions ([6]; systemic administration, within 24 hr after dosing): distributes non-specifically
Compound: CC1(C)C(/C=C/C=C/C=C/C=C2\N(CCCCS(=O)(=O)[O-])c3ccc4ccccc4c3C2(C)C)=[N+](CCCCS(=O)(=O)[O-])c2ccc3ccccc3c21.[Na+] [free ICG, indocyanine green]

Compound: CCN(CC)CCNC(=O)c1c(C)[nH]c(/C=C2\C(=O)Nc3ccc(F)cc32)c1C [free sunitinib, sunitinib]
AUC estimates, sunitinib compared to D-4517 [7]: higher
